Reference: patent US7550599B2, “Water compatible sterically hindered alkoxyamines and hydroxy substituted alkoxyamines” (Ciba Specialty Chemicals Corporation, priority 2003, dated 2009)

Tests used:
[1] = Compatibility (clarity) in water borne urethane/acrylic copolymer coating, Example 101; assay type: physicochemical; settings: 2% by weight stabilizer; haziness = incompatibility
Protocol: Formulation Reference: NeoResins, Inc., Formulation WB-2010, Technical Brochure, August, 2000.
(§1) The following components are mixed together under good agitation:
This solution is added to a 4 ounce clear glass jar containing 72.85 parts of NeoPac R-9699 under vigorous agitation and agitated for 10 minutes. Optionally, a defoamer, like Dehydran 1620 (Henkel), and a flash rusting agent, like Heiscore XAB (Cas Chem), are added. The lid is placed securely on the jar. The solidified coatings are visually observed for clarity after solidification. The development of opacity or haziness is indicative of an incompatibility between the hindered amine stabilizer and the formulated coating.

[2] = Solubility in 50% butyl carbitol / 50% water; assay type: physicochemical; settings: 50% butyl carbitol / 50% water by weight; stirred 30 minutes
Protocol: The solubility of the instant compounds is evaluated in polar solvent systems. A solution of 50% butyl carbitol by weight and 50% water by weight is prepared. The instant compounds are added to this solution, stirred for 30 minutes, and sampled for analysis. Samples containing bis(1-octyloxy-2,2,6,6-tetramethylpiperidin-4-yl)sebacate and 4-hydroxy-1-(2-hydroxy-2-methylpropoxy)-2,2,6,6-tetramethylpiperidine are filtered to remove any undissolved residue and all samples are analyzed by high pressure liquid chromatography or gas chromatography.

[3] = Solubility in 50% butyl cellusolve / 50% water; assay type: physicochemical; settings: 50% butyl cellusolve / 50% water by weight; stirred 30 minutes
Protocol: The solubility of the instant compounds is evaluated in polar solvent systems. A solution of 50% butyl cellusolve by weight and 50% water by weight is prepared. The instant compounds are added to this solution stirred for 30 minutes, and sampled for analysis. Samples containing bis(1-octyloxy-2,2,6,6-tetramethylpiperidin-4-yl)sebacate and 4-hydroxy-1-(2-hydroxy-2-methylpropoxy)-2,2,6,6-tetramethylpiperidine are filtered to remove any undissolved residue and all samples are analyzed by high pressure liquid chromatography or gas chromatography.

[4] = Solubility in 25% butyl cellusolve / 75% water; assay type: physicochemical; settings: 25% butyl cellusolve / 75% water by weight; stirred 30 minutes
Protocol: The solubility of the instant compounds is evaluated in polar solvent systems. A solution of 25% butyl cellusolve by weight and 75% water by weight is prepared. The instant compounds are added to this solution, stirred for 30 minutes, and sampled for analysis. Samples containing bis[…] and 4-hydroxy-1-(2-hydroxy-2-methylpropoxy)-2,2,6,6-tetramethylpiperidine are filtered to remove any undissolved residue and all samples are analyzed by high pressure liquid chromatography or gas chromatography.

Solubility in water = assay type: physicochemical; settings: stirred 30 minutes
Protocol: The solubility of the instant compounds is evaluated in polar solvent systems. The instant compounds are added to water, stirred for 30 minutes, and sampled for analysis. Samples containing bis(1-octyloxy-2,2,6,6-tetramethylpiperidin-4-yl)sebacate and 4-hydroxy-1-(2-hydroxy-2-methylpropoxy)-2,2,6,6-tetramethylpiperidine are filtered to remove any undissolved residue and all samples are analyzed by high pressure liquid chromatography or gas chromatography.

[5] = Ink jet media light fastness, cyan, Example 31; settings: 100% print density; office fluorescent lighting; 650-700 mg/m2
Protocol: (§2) A resin-coated paper impregnated with inorganic adsorbent particles (Konica QP Photoglossy ink jet paper, Konica Corp.) is purchased. On the ink-receiving layer, a 0.8 wt % methanol solution of the instant compounds is applied in an amount to achieve 650-700 mg/m^2, unless otherwise stated. The paper is allowed to dry under ambient temperature and pressure for 24 hours. Separately, test patterns (cyan) are printed on the treated sheets using a Hewlett Packard DeskJet 970 Cxi printer at 100% print density. The obtained prints are left to dry at ambient temperature and pressure for 24 hours. Color densities and CIEL*a*b coordinates before and after exposure are measured using X-Rite 938 Spectrodensitometer. Exposures are carried out using normal office fluorescent lighting.

[6] = Ink jet media light fastness, yellow, Example 33; settings: 50% print density as printed, office fluorescent lighting, 650-700 mg/m2
Protocol: as §2, with “stated otherwise.” for “otherwise stated.”, “(yellow)” for “(cyan)”, “50%” for “100%”

[7] = Ink jet media light fastness, cyan, Example 34; settings: 50% print density; office fluorescent lighting; 650-700 mg/m2
Protocol: as §2, with “50%” for “100%”

[8] = Ink jet media light fastness, yellow, Example 36; settings: 50% print density, office fluorescent lighting, 650-700 mg/m2
Protocol: as §2, with “stated otherwise.” for “otherwise stated.”, “(yellow)” for “(cyan)”, “50%” for “100%”

[9] = Ink jet media light fastness, magenta, Example 32; settings: 100% print density; office fluorescent lighting; 650-700 mg/m2
Protocol: as §2, with “(magenta)” for “(cyan)”

[10] = Compatibility (clarity) in alkali-soluble water-borne acrylic copolymer coating, liquid in jar, Example 112; assay type: physicochemical; settings: 2% by weight stabilizer; haziness = incompatibility
Protocol: Formulation Reference: NeoResins, Inc., Formulation WB-2065, Technical Brochure.
as §1
This solution is added to a 4 ounce clear glass jar containing 54.14 parts of NeoCryl BT-520 and 0.43 parts of Instant Stabilizer under vigorous agitation and is agitated for 10 minutes. The lid is placed securely on the jar. The liquid coating samples are visually observed for clarity over time. The development of opacity or haziness is indicative of an incompatibility between the hindered amine stabilizer and the formulated coating.

[11] = Compatibility (clarity) in two component water-borne polyurethane coating, jar, Example 113; assay type: physicochemical; settings: 2% by weight stabilizer, with UVA; haziness = incompatibility
Protocol: Formulation Reference: Bayer Corp., 2K Waterborne Clear, Notebook #820894-A, Technical Brochure.
as §1
This solution is added to a 4 ounce clear glass jar containing 15.56 parts of Bayhydur XP-7165 and 3.91 parts of Exxate 700 under vigorous agitation and is agitated for 10 minutes. The lid is placed securely on the jar. The solidified coating samples are visually observed for clarity over time. The development of opacity or haziness is indicative of an incompatibility between the hindered amine stabilizer and the formulated coating.

[12] = Compatibility (clarity) of acrylic copolymer coating in Petri dish, Example 114; assay type: physicochemical; settings: coating of Example 112; oven 65 C thirty minutes; 2% by weight stabilizer
Protocol: The hindered amine test stabilizers are incorporated into a coating system as described in Example 112. A 9.5-10 gram sample of each of the liquid coatings is added to a 100 mm×15 mm Petri dish and is placed in an oven at 65 C for thirty minutes. The samples are taken out of the oven, allowed to cool, and are visually observed for clarity over time. The development of opacity or haziness is indicative of an incompatibility between the hindered amine stabilizer and the formulated coating.

[13] = Compatibility (clarity) of polyurethane coating in Petri dish, Example 115; assay type: physicochemical; settings: coating of Example 113; oven 75 C 120 minutes; 2% by weight stabilizer
Protocol: The hindered amine test stabilizers are incorporated into a coating system as described in Example 113. A 9.5-10 gram sample of each of the liquid coatings is added to a 100 mm×15 mm Petri dish and is placed in an oven at 75 C for 120 minutes. The samples are taken out of the oven, allowed to cool, and are visually observed for clarity over time. The development of opacity or haziness is indicative of an incompatibility between the hindered amine stabilizer and the formulated coating.

With `CC(=O)O.CCCCN(c1nc(NCCNCCNCCN)nc(N(CCCC)C2CC(C)(C)N(OC3CCCCC3)C(C)(C)C2)n1)C1CC(C)(C)N(OC2CCCCC2)C(C)(C)C1` [I] the “Solidified coating in jar, clarity, 0 days” value (“Solidified coating … 0 days” for short) [1] was “clear”, the “Solidified coating in jar, clarity, 1 days” value (from here on “Solidified coating … 1 days”) [1] was “clear” and the “Solidified coating in jar, clarity, 19 days” value (from here on “Solidified coating … 19 days”) [1] was “clear”.

In the case of `CON1C(C)(C)CC(NCCOCCOCCNC2CC(C)(C)N(OC)C(C)(C)C2)CC1(C)C` [L], the “Solidified coating … 0 days” value [1] is reported as “clear”, the “Solidified coating … 1 days” value [1] is reported as “clear” and the “Solidified coating … 19 days” value [1] is reported as “clear”.

In the case of `CC(C)(O)CON1C(C)(C)CC(NCC(=O)[O-])CC1(C)C.[K+]` [Example 10], the “Solubility (% by weight)” value [2] is reported as “≧20 % by weight”, the “Solubility (% by weight)” value [3] is reported as “≧20 % by weight” and the “Solubility (% by weight)” value [4] is reported as “≧18 % by weight”. The “Solubility (% by weight)” value (Solubility in water) was “≧8 % by weight”.

With `CC(C)(O)CON1C(C)(C)CC(=NO)CC1(C)C` [Example 2] the “DE for cyan after 4 weeks” value [5] was 4.69, the “DE for yellow after 4 weeks” value [6] was 3.87 and the “DE for cyan after 4 weeks” value [7] was 5.53. The “DE for yellow after 4 weeks” value [8] was 1.36.

In the case of `CC(C)(O)CON1C(C)(C)CC(NCCO)CC1(C)C` [Example 1], the “DE for cyan after 4 weeks” value [5] is reported as 4.21, the “DE for magenta after 4 weeks” value [9] is reported as 20.23 and the “DE for cyan after 4 weeks” value [7] is reported as 5.29.

With `CCCCCCCCON1C(C)(C)CC(OC(=O)CCCCCCCCC(=O)OC2CC(C)(C)N(OCCCCCCCC)C(C)(C)C2)CC1(C)C` [B] the “Solidified coating … 0 days” value [1] was “hazy”, the “Solidified coating … 1 days” value [1] was “hazy” and the “Solidified coating … 19 days” value [1] was “hazy”. For the same molecule, the “Liquid coating in jar, clarity, 0” value [10] was “hazy”, the “Liquid coating in jar, clarity, 1 Month” value [10] was “hazy” and the “Liquid coating in jar, clarity, Day 1” value [10] was “hazy”. The “Solidified coating in jar, clarity, 0” value [11] was “hazy”, the “Solidified coating in jar, clarity, 1 Month” value [11] was “hazy” and the “Solidified coating in jar, clarity, Day 1” value [11] was “hazy”. For the same molecule, the “Solidified coating in Petri Dish, clarity, 0” value [12] was “hazy”, the “Solidified coating in Petri Dish, clarity, 1 Month” value [12] was “hazy” and the “Solidified coating in Petri Dish, clarity, Day 1” value [12] was “hazy”. For the same molecule, the “Solidified coating in Petri Dish, clarity, 0” value [13] was “hazy”, the “Solidified coating in Petri Dish, clarity, 1 Month” value [13] was “hazy” and the “Solidified coating in Petri Dish, clarity, Day 1” value [13] was “hazy”.

For `CC(C)(O)CON1C(C)(C)CC(O)CC1(C)C` [HALS B, 4-hydroxy-1-(2-hydroxy-2-methylpropoxy)-2,2,6,6-tetramethylpiperidine, reference compound], the “Solubility (% by weight)” value [2] was 13.4 % by weight, the “Solubility (% by weight)” value [3] was 15.5 % by weight and the “Solubility (% by weight)” value [4] was 13.6 % by weight. For the same molecule, the “Solubility (% by weight)” value (Solubility in water) was 1.4 % by weight.

With `CCCCCCCCON1C(C)(C)CC(OC(=O)CCCCCCCCC(=O)OC2CC(C)(C)N(OCCCCCCCC)C(C)(C)C2)CC1(C)C` [HALS A, bis(1-octyloxy-2,2,6,6-tetramethylpiperidin-4-yl) sebacate, reference compound] the “Solubility (% by weight)” value [2] was 0.2 % by weight, the “Solubility (% by weight)” value [3] was 0.7 % by weight and the “Solubility (% by weight)” value [4] was less than 0.1 % by weight. For the same molecule, the “Solubility (% by weight)” value (Solubility in water) was less than 0.1 % by weight.

With `CCCCN(c1nc(Nc2ccc(Cl)c(C(=O)O)c2)nc(N(CCCC)C2CC(C)(C)N(OC3CCCCC3)C(C)(C)C2)n1)C1CC(C)(C)N(OC2CCCCC2)C(C)(C)C1` [G] the “Solidified coating … 0 days” value [1] was “clear”, the “Solidified coating … 1 days” value [1] was “clear” and the “Solidified coating … 19 days” value [1] was “clear”.

In the case of `CCCCN(c1nc(NCCN2CCNCC2)nc(N(CCCC)C2CC(C)(C)N(OC3CCCCC3)C(C)(C)C2)n1)C1CC(C)(C)N(OC2CCCCC2)C(C)(C)C1.Cl` [J], the “Solidified coating … 0 days” value [1] is reported as “clear”, the “Solidified coating … 1 days” value [1] is reported as “clear” and the “Solidified coating … 19 days” value [1] is reported as “clear”.

With `CCCCN(c1nc(Nc2ccc(S(=O)(=O)O)cc2)nc(N(CCCC)C2CC(C)(C)N(OC3CCCCC3)C(C)(C)C2)n1)C1CC(C)(C)N(OC2CCCCC2)C(C)(C)C1.Cl` [H] the “Solidified coating … 0 days” value [1] was “clear”, the “Solidified coating … 1 days” value [1] was “clear” and the “Solidified coating … 19 days” value [1] was “clear”.
